Data on 28 compounds can be found in US20230303513A1, “OXOPYRROLIDINE UREA FPR2 AGONISTS” (BRISTOL-MYERS SQUIBB COMPANY, priority 2020, published 2023).

Bounds are passed on as bounds.

The target of one assay is human FPR2 (Homo sapiens (Human), UniProt P25090). Put plainly: FPR2 cyclic adenosine monophosphate (cAMP) assay. It counts as cell-based. The note with it: CHO cells overexpressing human FPR2; forskolin 5 μM, IBMX 200 μM; inhibition of cAMP production, HTRF; read-out: hFPR2 cAMP2 EC50. An excerpt:
(§1) N-formyl peptide receptors (FPRs) are a family of chemo attractant receptors that facilitate leukocyte response during inflammation. FPRs belong to the seven-transmembrane G protein-coupled receptor superfamily and are linked to inhibitory G-proteins (Gi). Three family members (FPR1, FPR2 and FPR3) have been identified in humans and are predominantly found in myeloid cells with varied distribution and have also been reported in multiple organs and tissues. After agonist binding, the FPRs activate a multitude of physiological pathways, such as intra cellular signaling transduction, Ca^21 mobilization and transcription. The family interacts with a diverse set of ligands that includes proteins, polypeptides and fatty acid metabolites which activate both pro-inflammatory and pro-resolution downstream responses. FPR2 and FPR1 Cyclic Adenosine Monophosphate (cAMP) Assays were used to measure the activity of the compounds in this patent.
(§2) FPR2 and FPR1 Cyclic Adenosine Monophosphate (cAMP) Assays. A mixture of forskolin (5 μM final for FPR2 or 10 μM final for FPR1) and IBMX (200 μM final) were added to 384-well Proxiplates (Perkin-Elmer) pre-dotted with test compounds in DMSO (1% final) at final concentrations in the range of 0.020 nM to 100 μM. Chinese Hamster Ovary cells (CHO) overexpressing human FPR1 or human FPR2 receptors were cultured in F-12 (Ham's) medium supplemented with 10% qualified FBS, 250 μg/ml zeocin and 300 μg/ml hygromycin (Life Technologies). Reactions were initiated by adding 2,000 human FPR2 cells per well or 4,000 human FPR1 cells per well in Dulbecco's PBS (with calcium and magnesium) (Life Technologies) supplemented with 0.1% BSA (Perkin-Elmer). The reaction mixtures were incubated for 30 min at room temperature. The level of intracellular cAMP was determined using the HTRF HiRange cAMP assay reagent kit (Cisbio) according to manufacturer's instruction. Solutions of cryptate conjugated anti-cAMP and d2 flurorophore-labelled cAMP were made in a supplied lysis buffer separately. Upon completion of the reaction, the cells were lysed with equal volume of the d2-cAMP solution and anti-cAMP solution. After a 1-h room temperature incubation, time-resolved fluorescence intensity was measured using the Envision (Perkin-Elmer) at 400 nm excitation and dual emission at 590 nm and 665 nm. A calibration curve was constructed with an external cAMP standard at concentrations ranging from 1 μM to 0.1 μM by plotting the fluorescent intensity ratio from 665 nm emission to the intensity from the 590 nm emission against cAMP concentrations. The potency and activity of a compound to inhibit cAMP production was then determined by fitting to a 4-parametric logistic equation from a plot of cAMP level versus compound concentrations.

Another assay addresses human FPR1 (Homo sapiens (Human), UniProt P21462). The assay is described as follows: FPR1 cyclic adenosine monophosphate (cAMP) assay. It counts as cell-based. The note with it: CHO cells overexpressing human FPR1; forskolin 10 μM, IBMX 200 μM; inhibition of cAMP production, HTRF; read-out: hFPR1 cAMP EC50.
Excerpt: as §1, §2

One may read the EC50 as the concentration giving half of the maximal effect.

human FPR2, sequence (P25090 whole entry): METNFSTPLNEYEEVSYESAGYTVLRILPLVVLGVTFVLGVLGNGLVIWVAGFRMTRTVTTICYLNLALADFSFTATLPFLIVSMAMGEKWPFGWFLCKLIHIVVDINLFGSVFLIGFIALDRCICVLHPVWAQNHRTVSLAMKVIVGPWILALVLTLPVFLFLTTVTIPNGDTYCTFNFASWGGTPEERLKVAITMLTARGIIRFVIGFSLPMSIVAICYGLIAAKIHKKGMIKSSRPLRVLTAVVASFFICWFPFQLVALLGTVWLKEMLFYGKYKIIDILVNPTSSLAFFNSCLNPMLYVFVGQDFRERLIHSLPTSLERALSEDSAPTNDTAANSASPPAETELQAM
human FPR1, sequence (P21462 whole entry): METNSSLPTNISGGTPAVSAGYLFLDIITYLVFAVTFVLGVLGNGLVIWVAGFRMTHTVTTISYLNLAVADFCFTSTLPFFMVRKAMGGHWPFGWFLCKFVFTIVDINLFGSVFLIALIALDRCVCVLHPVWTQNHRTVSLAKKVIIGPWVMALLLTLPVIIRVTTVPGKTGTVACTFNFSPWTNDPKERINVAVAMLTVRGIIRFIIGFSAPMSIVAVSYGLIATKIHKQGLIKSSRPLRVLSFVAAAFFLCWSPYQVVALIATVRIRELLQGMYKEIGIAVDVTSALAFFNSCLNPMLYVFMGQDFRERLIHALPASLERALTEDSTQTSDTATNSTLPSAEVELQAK

As to `COCC(CO)n1cccc(N2C[C@@H](c3c(F)cc(OC)cc3F)[C@H](NC(=O)NC3CCc4cc(OC)ccc4C3)C2=O)c1=O` (single isomer, unassigned) [Example 2], the figures for the EC50 at human FPR2 and at human FPR1 were 20 nM and 40 nM, respectively.

On to `COCC(CO)n1cccc(N2C[C@@H](c3c(F)cc(OC)cc3F)[C@H](NC(=O)NC3CCc4cc(OC)ccc4C3)C2=O)c1=O` (single isomer, unassigned) [Example 3], for which the EC50 at human FPR2 was 6 nM; at human FPR1, 20 nM.

For the compound `COc1cc(F)c([C@@H]2CN(c3nccc(NCC4CCOC4)c3C(F)(F)F)C(=O)[C@H]2NC(=O)N[C@H]2CC[C@H](C(F)F)CC2)c(F)c1` (single isomer, unassigned) [Example 73], the EC50 at human FPR2 is 320 nM; at human FPR1, > 1000 nM.

Turning to `COc1cc(F)c([C@@H]2CN(c3nccc(NCC4CCOC4)c3C(F)(F)F)C(=O)[C@H]2NC(=O)N[C@H]2CC[C@H](C(F)F)CC2)c(F)c1` (single isomer, unassigned) [Example 74], the EC50 at human FPR2 is 26 nM; at human FPR1, > 1000 nM.

Consider `CNC(=O)C(C)Nc1ccnc(N2C[C@@H](c3c(F)cc(OC)cc3F)[C@H](NC(=O)N[C@H]3CC[C@H](C(F)F)CC3)C2=O)c1C(F)(F)F` (single isomer, unassigned) [Example 75], for which the values for the EC50 at human FPR2 and at human FPR1 were 21 nM and > 1000 nM, respectively.

Turning to `CNC(=O)C(C)Nc1ccnc(N2C[C@@H](c3c(F)cc(OC)cc3F)[C@H](NC(=O)N[C@H]3CC[C@H](C(F)F)CC3)C2=O)c1C(F)(F)F` (single isomer, unassigned) [Example 76], the EC50 on human FPR2 was 23 nM; at human FPR1 it was > 1000 nM.

Consider `COc1cc(F)c([C@@H]2CN(c3cccn(CC(O)C(F)(F)F)c3=O)C(=O)[C@H]2NC(=O)NC2CCc3cc(OC)ccc3C2)c(F)c1` (single isomer, unassigned) [Example 77], for which the EC50 at human FPR2 came out at 15 nM.

Take `COc1cc(F)c([C@@H]2CN(c3cccn(CC(O)C(F)(F)F)c3=O)C(=O)[C@H]2NC(=O)NC2CCc3cc(OC)ccc3C2)c(F)c1` (single isomer, unassigned) [Example 78]: the EC50 was found to be 50 nM at human FPR2 and 100 nM on human FPR1.

`COc1cc(F)c([C@@H]2CN(c3c(C)ccn(CCO)c3=O)C(=O)[C@H]2NC(=O)NC2CCc3cc(OC)ccc3C2)c(F)c1` (single isomer, unassigned) [Example 83]: the values for the EC50 at human FPR2 and on human FPR1 were 1 nM and 12 nM, respectively.

Regarding `COc1cc(F)c([C@@H]2CN(c3c(C)ccn(CCO)c3=O)C(=O)[C@H]2NC(=O)NC2CCc3cc(OC)ccc3C2)c(F)c1` (single isomer, unassigned) [Example 84], the 50% effective concentration (EC50) at human FPR2 amounted to 1.4 nM; on human FPR1, 0.3 nM.

As for `CCn1nccc(N2C[C@@H](c3c(F)cc(OC)cc3F)[C@H](NC(=O)NC3CCc4cc(OC)ccc4C3)C2=O)c1=O` (single isomer, unassigned) [Example 86], the EC50 at human FPR2 turned out to be 1.4 nM; at human FPR1, 0.3 nM.

As for `CCn1nccc(N2C[C@@H](c3c(F)cc(OC)cc3F)[C@H](NC(=O)NC3CCc4cc(OC)ccc4C3)C2=O)c1=O` (single isomer, unassigned) [Example 87], the values for the EC50 on human FPR2 and at human FPR1 were 3.2 nM and 4.8 nM, respectively.

Take `COc1cc(F)c([C@H]2[C@H](NC(=O)NC3CCc4cc(OC)ccc4C3)C(=O)N(c3cccn(CCO)c3=O)[C@H]2C)c(F)c1` (single isomer, unassigned) [Example 89]: the EC50 came to 7.1 nM on human FPR2 and 4.3 nM at human FPR1.

For the compound `COc1cc(F)c([C@H]2[C@H](NC(=O)NC3CCc4cc(OC)ccc4C3)C(=O)N(c3cccn(CCO)c3=O)[C@H]2C)c(F)c1` (single isomer, unassigned) [Example 90], the EC50 on human FPR2 came out at 4 nM; on human FPR1, 3.7 nM.

For the compound `COc1cc(F)c([C@@H]2CN(c3nccc(N4CCC(C)(O)C4)c3C(F)(F)F)C(=O)[C@H]2NC(=O)N[C@H]2CC[C@H](C(F)F)CC2)c(F)c1` (single isomer, unassigned) [Example 91], the EC50 on human FPR2 amounted to 7.7 nM; at human FPR1 it was 780 nM.

Take `COc1cc(F)c([C@@H]2CN(c3nccc(N4CCC(C)(O)C4)c3C(F)(F)F)C(=O)[C@H]2NC(=O)N[C@H]2CC[C@H](C(F)F)CC2)c(F)c1` (single isomer, unassigned) [Example 92]: the EC50 at human FPR2 was 44 nM; on human FPR1, > 5000 nM.

Regarding `COc1cc(F)c([C@@H]2CN(c3cccn(C(F)F)c3=O)C(=O)[C@H]2NC(=O)NC2CCc3cc(OC)ccc3C2)c(F)c1` (single isomer, unassigned) [Example 94], the EC50 at human FPR2 was determined as 1.6 nM; at human FPR1 it was 1.2 nM.

On to `COc1cc(F)c([C@@H]2CN(c3cccn(C(F)F)c3=O)C(=O)[C@H]2NC(=O)NC2CCc3cc(OC)ccc3C2)c(F)c1` (single isomer, unassigned) [Example 95], for which the EC50 at human FPR2 was 4 nM; at human FPR1, 5.3 nM.

As for `COc1cc(F)c([C@@H]2CN(c3nccc(N4C[C@@H]5C[C@H]4CN5C)c3C(F)(F)F)C(=O)[C@H]2NC(=O)N[C@H]2CC[C@H](C(F)F)CC2)c(F)c1` (single isomer, unassigned) [Example 96], the EC50 came to 4.6 nM at human FPR2 and 3400 nM at human FPR1.

In the case of `COc1cc(F)c([C@@H]2CN(c3nccc(N4C[C@@H]5C[C@H]4CN5C)c3C(F)(F)F)C(=O)[C@H]2NC(=O)N[C@H]2CC[C@H](C(F)F)CC2)c(F)c1` (single isomer, unassigned) [Example 97], the EC50 on human FPR2 is 0.4 nM; on human FPR1, 1400 nM.

Turning to `COc1cc(F)c([C@@H]2CN(c3nccc(NC4CCOC4)c3C(F)(F)F)C(=O)[C@H]2NC(=O)N[C@H]2CC[C@H](C(F)F)CC2)c(F)c1` (single isomer, unassigned) [Example 99], the values for the EC50 at human FPR2 and at human FPR1 were 6.2 nM and 730 nM, respectively.

With `COc1cc(F)c([C@@H]2CN(c3nccc(NC4CCOC4)c3C(F)(F)F)C(=O)[C@H]2NC(=O)N[C@H]2CC[C@H](C(F)F)CC2)c(F)c1` (single isomer, unassigned) [Example 100], the EC50 on human FPR2 is 9 nM; on human FPR1, > 10000 nM.

For the compound `COc1cc(F)c([C@@H]2CN(c3nccc(N4CCN5CCCC5C4)c3C(F)(F)F)C(=O)[C@H]2NC(=O)N[C@H]2CC[C@H](C(F)F)CC2)c(F)c1` (single isomer, unassigned) [Example 102], the 50% effective concentration (EC50) on human FPR2 was 7.9 nM; on human FPR1 it was 1000 nM.

`COc1cc(F)c([C@@H]2CN(c3nccc(N4CCN5CCCC5C4)c3C(F)(F)F)C(=O)[C@H]2NC(=O)N[C@H]2CC[C@H](C(F)F)CC2)c(F)c1` (single isomer, unassigned) [Example 103]: the 50% effective concentration (EC50) on human FPR2 came out at 17 nM; on human FPR1, 2100 nM.

Turning to `COCCn1cccc(N2C[C@@H](c3ccc(OC)cc3)[C@H](NC(=O)NC3CCc4cc(Cl)ccc4C3)C2=O)c1=O` (stereo partly drawn) [Example 5], the EC50 on human FPR2 is 0.2 nM.

As for `CCn1cccc(N2C[C@@H](c3ccc(OC)cc3)[C@H](NC(=O)NC3CCc4cc(OC)ccc4C3)C2=O)c1=O` (stereo partly drawn) [Example 13], the EC50 on human FPR2 amounted to 1.3 nM.

As to `COCCn1cccc(N2C(=O)[C@@H](NC(=O)NC3CCc4cc(OC)ccc4C3)[C@H](c3c(F)cc(OC)cc3F)[C@@H]2C)c1=O` (stereo partly drawn) [Example 26], the EC50 at human FPR2 stood at 2.8 nM.

Regarding `COc1cc(F)c([C@@H]2CN(c3cccn(CC(O)C(F)(F)F)c3=O)C(=O)[C@H]2NC(=O)NC2CCc3cc(OC)ccc3C2)c(F)c1` (stereo partly drawn) [Example 79], on human FPR2, the EC50 turned out to be 7.3 nM.
